3 compounds from EP0545103A1, “Insecticidal, acaricidal and molluscicidal 1-(substituted) thioalkylpyrroles” (priority 1991, dated 1993) can be followed below.

Assay type in all cases: in vivo
Assay [1] deals with Empoasca abrupta, adult, western potato leafhopper. Description: Western potato leafhopper contact test, dipped limabean leaf. More on the design: key: 0: no effect; 10-25% kill; 26-35% kill; 36-45% kill; 46-55% kill; 56-65% kill; 66-75% kill; 76-85% kill; 86-99% kill; 9: 100% kill. On the procedure:
(§1) Test solutions are prepared by dissolving the test compound in a 35% acetone in water mixture to give a concentration of 10,000 ppm. Subsequent dilutions are made with water as needed.
Empoasca abrupta, adult, western potato leafhopper
A Sieva limabean leaf about 5 cm long is dipped in the test solution for 3 seconds with agitation and placed in a hood to dry. The treated leaf is placed in a 100 x 10 mm petri dish containing a moist filter paper and about 10 adult leafhoppers are added. After 2 days, mortality counts are made.
(§2) All of the above tests are rated according to the rating scale shown below.

The subject of assay [2] is Spodoptera eridania, 3rd instar larvae, southern armyworm. The assay is described as follows: Southern armyworm systemic uptake (stem systemic) test. More on the design: key: 0: no effect; 10-25% kill; 26-35% kill; 36-45% kill; 46-55% kill; 56-65% kill; 66-75% kill; 76-85% kill; 86-99% kill; 9: 100% kill. The settings on record: cut stem in emulsion 3 days.
The test system of assay [3] is Diabrotic undecimpunctata howardi, 3rd instar southern corn rootworm. The assay is described as follows: Southern corn rootworm soil test. Details: key: 0: no effect; 10-25% kill; 26-35% kill; 36-45% kill; 46-55% kill; 56-65% kill; 66-75% kill; 76-85% kill; 86-99% kill; 9: 100% kill. The following applies: mortality rating after 6 days. An outline of the steps:
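Compound applied in acetone to talc at 1.25 and 0.25 mg active ingredient per jar (about 50 and 10 kg/ha), dried, then mixed with millet seed and moist soil. Ten 3rd instar larvae added per jar; mortality counted at 6 days, with missing larvae scored dead. Results rated on a scale.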

The subject of assay [4] is Tetranychus urticae (OP-resistant strain), 2-spotted spider mite. Description: 2-spotted spider mite test, dipped infested limabean plants. More on the design: key: 0: no effect; 10-25% kill; 26-35% kill; 36-45% kill; 46-55% kill; 56-65% kill; 66-75% kill; 76-85% kill; 86-99% kill; 9: 100% kill. The procedure: as §1
Tetranychus urticae (OP-resistant strain), 2-spotted spider mite
Sieva limabean plants with primary leaves expanded to 7-8 cm are selected and cut back to one plant per pot. A small piece is cut from an infested leaf taken from the main colony and placed on each leaf of the test plants. This is done about 2 hours before treatment to allow the mites to move over to the test plant and to lay eggs. The size of the cut, infested leaf is varied to obtain about 100 mites per leaf. At the time of test treatment, the piece of leaf used to transfer the mites is removed and discarded. The newly mite-infested plants are dipped in the test solution for 3 seconds with agitation and set in the hood to dry. After 2 days one leaf is removed and mortality counts are made. After 5 days, another leaf is removed and observations are made of mortality of the eggs and/or newly emerged nymphs.
as §2

Assay [5] relates to Spodoptera eridania, 3rd instar larvae, southern armyworm. Description: Southern armyworm 3rd instar test, dipped limabean leaf. The following applies: for ARMYWORM Day 5: rating at 5 days; for ARMYWORM Day 3: rating at 3 days. An outline of the steps: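 Compound dissolved in 35% acetone/water at 10,000 ppm stock, diluted with water. Sieva limabean leaves dipped 3 s, dried, and exposed to ten 3rd instar larvae on damp filter paper. Mortality, reduced feeding and molting interference scored at 3 and 5 days on a rating scale.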

Assay [6] has as its system Aphis fabae, mixed instar, bean aphid. The assay is described as follows: Bean aphid spray test on nasturtium. The following applies: 100 ppm. Details: key: 0: no effect; 10-25% kill; 26-35% kill; 36-45% kill; 46-55% kill; 56-65% kill; 66-75% kill; 76-85% kill; 86-99% kill; 9: 100% kill. On the procedure: as §1
Aphis fabae, mixed instar, bean aphid
Pots containing single nasturtium plants (Tropaeolum sp.) about 5 cm tall are infested with about 100-200 aphids one day prior to treatment. Each pot is sprayed with the test solution for 2 revolutions of a 4 rpm turntable in a hood, using a #154 DeVilbiss atomizer. The spray tip is held about 15 cm from the plant and the spray directed so as to give complete coverage of the plants and the aphids. The sprayed pots are set on their sides on white enamel trays and mortality estimates are made after 2 days.
as §2

Assay [7] concerns Heliothis virescens, egg, tobacco budworm. The assay is described as follows: Tobacco budworm egg test, dipped cotton leaf and eggs. More on the design: key: 0: no effect; 10-25% kill; 26-35% kill; 36-45% kill; 46-55% kill; 56-65% kill; 66-75% kill; 76-85% kill; 86-99% kill; 9: 100% kill. The settings on record: mortality rating after 3 days. In a few lines:
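Compound dissolved at 10,000 ppm in 35% aqueous acetone, diluted with water. A cotton leaf and a cheesecloth square with roughly 50-100 eggs aged 6-30 h are each dipped for about 3 s, then combined and kept humid. Mortality counted after 3 days and rated on a scale.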

For assay [8], the system named is Empoasca abrupta, adult, western potato leafhopper. Description: Western potato leafhopper systemic uptake test. The settings on record: 100 ppm. Details: key: 0: no effect; 10-25% kill; 26-35% kill; 36-45% kill; 46-55% kill; 56-65% kill; 66-75% kill; 76-85% kill; 86-99% kill; 9: 100% kill. The procedure:
Empoasca abrupta, adult, western potato leafhopper Systemic Uptake
An emulsion containing 0.1 gm of the test material, 0.2 gm of Emulphor EL-620® emulsifier, 10 mL of acetone and 90 mL of water is prepared and diluted 10-fold with water to give a 100 ppm emulsion. Subsequent 10-fold dilutions are made with water as needed. Sieva limabean plants, with the primary leaves expanded to a length of 7-8 cm, are cut off at least 3 cm above the soil level to avoid contamination with soil bacteria which will cause decay of the stem during the test. The cut stem is placed in the test emulsion and wrapped with a bit of cotton to hold the stem off the bottom of the bottle and to limit evaporation. The treated stem is maintained for 3 days at 27°C to allow the test compound to be taken up into the plant. Following this, one leaf is removed from the plant and placed in a 100 x 10 mm petri dish containing a moist filter paper and about 10 adult leafhoppers as described above. Mortality counts are made after 2 days.
as §2

For assay [9], the system named is Spodoptera eridania, 3rd instar larvae, southern armyworm. Description: Southern armyworm 7-day residual test. The following applies: R designates Residual: 7-day residual foliage, concentration not given. In a few lines:
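Compound was dissolved in 35% aqueous acetone (10,000 ppm stock) and diluted with water before treating lima bean leaves. The leaves were aged 7 days under high-intensity greenhouse lamps (14 h day). Third-instar Spodoptera eridania larvae were then assayed on the foliage and rated on a scale.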

Where [10] appears, read: 10 ppm, mortality rating after 2 days.
Setting [11] is: 100 ppm, mortality rating after 2 days.
The mark [12] stands for this setting: spray, mortality rating after 2 days.
Where [13] appears, read: cut stem in emulsion 3 days, mortality rating after 2 days.

As for `N#Cc1c(Cl)c(C(F)(F)F)n(CSC(=N)N)c1-c1ccc(Cl)cc1` [Example 3], the “LEAFHOPPER Contact” value in assay [1] (setting [10]) and in assay [1] (setting [11]) was 9 (100% kill) in each case. The “ARMYWORM Stem Sys” value in [2] was 0. Also, the “SOUTHERN CORN ROOTWORM” value was 0 in [3] (1 (ppm as headed)), 0 in assay [3] (10 (ppm as headed)) and 9 (100% kill) in assay [3] (50 (ppm as headed)). For the same compound, the “OP-RESISTANT MITES Nymph” value is on record as 0 in [4] (10 ppm, rating after 5 days) and 9 (100% kill) in assay [4] (300 ppm, rating after 5 days). Besides, the “ARMYWORM Day 5” value in assay [5] (10 ppm), in [5] (100 ppm) and in assay [5] (1000 ppm) was 9 (100% kill) in each case. The same compound came in with an APHIDS in assay [6] (setting [12]) of 0. Moreover, the entries for the “TOBACCO BUDWORM Egg” value in assay [7] (100 ppm) and in assay [7] (1000 ppm) were 0 and 5 (56-65% kill), respectively. Further, the “LEAFHOPPER Systemic” value in [8] (setting [13]) came out at 0.
Consider `CN(C)C(=S)SCn1c(-c2ccc(Cl)c(Cl)c2)c(Br)c(C(F)(F)F)c1C(F)(F)F` [Example 33], for which the “LEAFHOPPER Contact” value in assay [1] (10 ppm, contact, rating scale 0-9) was 0; in [1] (100 ppm, contact, rating scale 0-9), 8 (86-99% kill). In addition, in [2], the “ARMYWORM Stem Sys” value turned out to be 0. The “OP-RESISTANT MITES Adult” value in [4] (10 ppm, adult mites, rating scale 0-9) is on record as 0; in [4] (100 ppm, adult mites, rating scale 0-9), 0; in [4] (300 ppm, adult mites, rating scale 0-9), 7 (76-85% kill). The “OP-RESISTANT MITES Egg” value was 0 in assay [4] (10 ppm, mite eggs, rating scale 0-9); 8 (86-99% kill) in assay [4] (100 ppm, mite eggs, rating scale 0-9); 0 in assay [4] (300 ppm, mite eggs, rating scale 0-9). The “OP-RESISTANT MITES Nymph” value in [4] (10 ppm, mite nymphs, rating scale 0-9) is 0; in assay [4] (100 ppm, mite nymphs, rating scale 0-9), 0; in assay [4] (300 ppm, mite nymphs, rating scale 0-9) it was 0. Further, the “ARMYWORM Day 3” value in assay [5] (10 ppm), in [5] (100 ppm) and in assay [5] (1000 ppm) was 9 (100% kill) each time. Besides, the “ARMYWORM Day 5” value in [5] (10 ppm), in assay [5] (100 ppm) and in assay [5] (1000 ppm) was 9 (100% kill) each time. In addition, the APHIDS in [6] (rating scale 0-9) is 0. In assay [7] (1000 ppm), the “TOBACCO BUDWORM Egg” value is on record as 0. In addition, the “ARMYWORM Day 3 R” value in assay [9] (rating at 3 days) was 9 (100% kill). In addition, in [9] (rating at 5 days), the “ARMYWORM Day 5 R” value is given as 9 (100% kill). The “LEAFHOPPER Systemic” value in [8] (systemic uptake, rating scale 0-9) was 0.
Regarding `CC(C)OC(=S)SCn1c(-c2ccc(Cl)cc2)c(C#N)c(Cl)c1C(F)(F)F` [Example 22], the “LEAFHOPPER Contact” value in assay [1] (setting [10]) and in assay [1] (setting [11]) was 9 (100% kill) throughout. Moreover, the “ARMYWORM Stem Sys” value in assay [2] was 0. For the same compound, the “OP-RESISTANT MITES Adult” value in [4] (setting [10]) was 9 (100% kill); in assay [4] (setting [11]), 9 (100% kill); in assay [4] (300 ppm, mortality rating after 2 days), 9 (100% kill). The “OP-RESISTANT MITES Egg” value in assay [4] (10 ppm, rating after 5 days) is given as 9 (100% kill); in assay [4] (100 ppm, rating after 5 days), 9 (100% kill); in assay [4] (300 ppm, rating after 5 days), 0. The “OP-RESISTANT MITES Nymph” value in assay [4] (300 ppm, rating after 5 days) is 9 (100% kill). In addition, the “ARMYWORM Day 3” value in [5] (10 ppm), in assay [5] (100 ppm) and in assay [5] (1000 ppm) was 9 (100% kill) in each case. Moreover, the “ARMYWORM Day 5” value in [5] (10 ppm), in assay [5] (100 ppm) and in assay [5] (1000 ppm) was 9 (100% kill) throughout. Moreover, the APHIDS in assay [6] (setting [12]) is 7 (76-85% kill). In addition, the “TOBACCO BUDWORM Egg” value in assay [7] (1000 ppm) came to 0. Moreover, in [8] (setting [13]), the “LEAFHOPPER Systemic” value turned out to be 0.
